Columns and labels:
[1] = method code SF-AS, from DOI: 10.1021/jm00226a007, PMID: 817022; conditions: pH 7.4
[2] = method code SF, from DOI: 10.1021/jm00226a007, PMID: 817022; conditions: pH 7.4

SMILES	logD [1]	logD [2]
COc1cc(C(=O)NN)ccn1	–	-0.1
CC(=O)Nc1cc(C(=O)NN)ccn1	-1.25	–
CCOc1cc(C(=O)NN)ccn1	0.48	–
NNC(=O)c1ccnc(Br)c1	0.25	–
NNC(=O)c1ccnc(Cl)c1	0.11	–
NNC(=O)c1ccnc(I)c1	0.52	–
NNC(=O)c1ccnc([N+](=O)[O-])c1	-0.76	–
CC(=O)NCc1cc(C(=O)NN)ccn1	-1.58	–

The remaining lines, values ahead:

logD [1]	logD [2]	SMILES
1.02	–	CC(C)Cc1cc(C(=O)NN)ccn1
1.36	–	NNC(=O)c1ccnc(-c2ccccc2)c1
-0.98	–	NNC(=O)c1ccnc(N)c1
0.63	–	CCCc1cc(C(=O)NN)ccn1
1.01	–	NNC(=O)c1ccnc(Cc2ccccc2)c1
-0.11	–	NNC(=O)c1ccnc(F)c1
0.12	–	CCc1cc(C(=O)NN)ccn1
-0.37	–	Cc1cc(C(=O)NN)ccn1
1.12	–	CCN(CC)c1cc(C(=O)NN)ccn1

From the SangsterLogP compilation
